The source of these data is US8580577B2, “Method for detecting an analyte in a sample” (Evotec AG, priority 2002, dated 2013).

The test system of one data set is CYP1A1 mRNA. In words: Expression of cyp1A1 mRNA in HepG2 cells stimulated with 3-methylcholanthrene (homogeneous bead-based detection oligonucleotide assay). The data set is classed as cell-based. The settings on record: human, 24 h 3-MC, each of three plates, standard deviation 0.05 μM between plates. Here is the method:
(§1) Fully automated dual-channel confocal imaging was performed with two independent cooled CCD detectors. Excitation wavelengths were 532 nm and 633 nm, a dichroic beam splitter with 630 nm was used and emission filters were 565/50 nm and 690/40 nm. Laser power was ˜500 μW for both wavelengths, measured at the entrance of the objective. Exposure times were usually in the range of 500-1000 ms.
An image of the sample was acquired at 565 nm by the first CCD detector. This image is called the signal image. At this wavelength, the emission of the detection oligonucleotides is seen. Therefore, in principle one can see the fluorescence emission of both the unbound detection oligonucleotides as well as the detection oligonucleotides bound specifically to the analyte (and consequently via the capture oligonucleotides to the beads). […]
In addition, an image of the sample was acquired at 690 nm by the second CCD detector. […] The fluorescence of the biotinylated red oxazine dye bound to the beads can be seen as a red ring in the reference image (see FIG. 6, left picture). […] This fluorescence intensity is constant and not dependent on the mRNA analyte concentration, see FIG. 5 for illustration. […]
The analysis of the images was performed with image analysis software as follows. […] A mask of these rings corresponding to detected beads was generated from the reference image. […]

A further data set concerns Cyp1A1. Conditions: Cyp1A1 induction by 3-methylcholanthrene, publication of Delescluse et al.; read-out: EC50 roughly estimated from a published Northern Blot; cited from earlier work.
Another data set has as its system c-fos mRNA. In words: Expression of c-fos mRNA in HepG2 cells stimulated with PMA (homogeneous bead-based detection oligonucleotide assay, confocal imaging). The class given is cell-based. Conditions: for Mean average fluorescence signal intensity/bead pixel: 1 h. The procedure: as §1
An image of the sample was acquired at 565 nm by the first CCD detector. This image is called the signal image. At this wavelength, the emission of the detection oligonucleotides is seen. Therefore, in principle one can see the fluorescence emission of both the unbound detection oligonucleotides as well as the detection oligonucleotides bound specifically to the analyte (and consequently via the capture oligonucleotides to the beads). To distinguish these signals from each other, the present invention teaches to minimize the emission of the unbound detection oligonucleotides by the use of complementary quencher oligonucleotides. The signal intensity on the beads is linear dependent on the analyte concentration, i.e. in the present example the mRNA concentration.
In addition, an image of the sample was acquired at 690 nm by the second CCD detector. This image is called the reference image. At this wavelength, the emission of the biotinylated red oxazine dye is seen. The fluorescence of the biotinylated red oxazine dye bound to the beads can be seen as a red ring in the reference image (see FIG. 6, left picture). This emission of the dyes bound to the beads can be distinguished from the background emission of the unbound biotinylated red oxazine dye through threshold techniques. This fluorescence intensity is constant and not dependent on the mRNA analyte concentration, see FIG. 5 for illustration. At extremely high mRNA concentrations it may become inversely related to the mRNA concentrations due to limited streptavidin binding sites, however, under physiological conditions and in the experiments presented here this was not the case.
The analysis of the images was performed with image analysis software as follows. Segmentation of the beads from the background was performed on a pixel-basis in the reference image. […] A mask of these rings corresponding to detected beads was generated from the reference image. This mask was applied to the signal image (see FIG. 6, right picture). Areas within the outer boundary of the ring were evaluated for fluorescence intensity stemming from the DO-analyte-CO complex bound to the bead. […] Such local background intensity was then subtracted from the signal intensity.
The final result was the mean fluorescence intensity/bead pixel of the signal image. In general, the intensity was averaged over all correctly detected beads of the image. The beads were usually comprised in wells of micro- or nanotiter plates and in some cases, several images were taken of each well. In this instance, the intensity was averaged over all images of one well.
HepG2 cells were seeded at a density of 2*10^6 cells in 10 ml medium/plate (corresponding to 2*10^5 cells/ml) in nine 10 cm tissue culture plates (Greiner bio-one, catalogue no. 664160) in DMEM-F12 (Gibco, catalogue no. 31331-028) supplemented with 10% FCS (Gibco, catalogue no. 10500-064). The cells were incubated for 48 h at 37° C. with 5% CO2. Then medium was changed to DMEM (Sigma, catalogue no. D 5921) supplemented with 0.1% sterile filtered HSA (Sigma, catalogue no. A 1653) and incubation was continued for 24 h at 37° C. with 5% CO2. Then the cells were incubated with PMA (Phorbol 12-myristate 13-acetate, Sigma, catalogue no. P1585) for 1 h at 37° C. and 5% CO2 to induce expression of c-fos. 500 μl of appropriate PMA dilutions in DMEM with 0.1% HSA were added, for final concentrations refer to table 4 below.
One control plate was used for cell counting, the final cell number was 1.5*10^7 cells/plate. […]

`Cc1ccc2cc3c(ccc4ccccc43)c3c2c1CC3` [3-MC, 3-methylcholanthrene]: the EC50 at 24 h with CYP1A1 mRNA worked out at 800 nM. Besides, the EC50 in the data set with Cyp1A1 is about 500 nM.

As to `CCCCCCCCCCCCCC(=O)O[C@@H]1[C@@H](C)[C@@]2(O)[C@@H](C=C(CO)C[C@]3(O)C(=O)C(C)=C[C@@H]23)[C@@H]2C(C)(C)[C@]12OC(C)=O` [PMA, Phorbol 12-myristate 13-acetate], the “average expression rate of c-fos mRNA” value in the data set on c-fos mRNA (100 nM PMA, 7.2*10^4 lysed cells per well) turned out to be 42 copies mRNA/cell. In addition, the “c-fos mRNA copy number per well” value in the data set with c-fos mRNA (100 nM PMA, 24 μl of lysate, from the calibration of example 1a) is listed as 3.03*10^6 copies mRNA/well. Further, in the data set with c-fos mRNA (HepG2 cells, 1 h PMA, read-out: EC50 of increase in c-fos expression), the concentration for a half-maximal effect (EC50) amounted to 484 nM. Besides, the “Mean average fluorescence signal intensity/bead pixel” value with c-fos mRNA (HepG2 cells, PMA 0.5 nM) came out at 1.51; with c-fos mRNA (HepG2 cells, PMA 1 nM) it was 1.53; in the data set on c-fos mRNA (HepG2 cells, PMA 10 nM), 4.84; with c-fos mRNA (HepG2 cells, PMA 100 nM), 14.29; with c-fos mRNA (HepG2 cells, PMA 500 nM) it was 24.44; with c-fos mRNA (HepG2 cells, PMA 1000 nM) it was 30.03.
